Values of other authors in patent US6710051B1, “Screening method” (Klaus Trier APS, priority 1997, dated 2004).
Where two headings read alike, the source gives them in different places.

Target: T1, skeletal RyR (Oryctolagus cuniculus, UniProt P11716)
T1 construct: Structure-activity Relationship of Xanthines and Skeletal Muscle Ryanodine Receptor/Ca^2+ Release Channel; from tissue; host or cells: Skeletal muscle
Settings: cited from earlier work; for Bound [3H]ryanodine % of control / Bound [3H]ryanodine pmol/mg protein / Bound [3H]ryanodine, % of control, +1 mmol/l AMPPCP / Bound [3H]ryanodine, % of control, +3 mmol/l AMP: xanthine […]; for Bound [3H]ryanodine % of control / Bound [3H]ryanodine pmol/mg protein: 1 mmol/l AMPPCP; for Bound [3H]ryanodine pmol/mg protein: means±SD of 3-4 experiments; for effect on the [3H] ryanodine binding compared to the control xanthine: Table 3

[1] = control 3,7-dimethylxanthine = 100
[2] = control 1,3-dimethylxanthine = 100

T1 sequence (P11716 whole entry): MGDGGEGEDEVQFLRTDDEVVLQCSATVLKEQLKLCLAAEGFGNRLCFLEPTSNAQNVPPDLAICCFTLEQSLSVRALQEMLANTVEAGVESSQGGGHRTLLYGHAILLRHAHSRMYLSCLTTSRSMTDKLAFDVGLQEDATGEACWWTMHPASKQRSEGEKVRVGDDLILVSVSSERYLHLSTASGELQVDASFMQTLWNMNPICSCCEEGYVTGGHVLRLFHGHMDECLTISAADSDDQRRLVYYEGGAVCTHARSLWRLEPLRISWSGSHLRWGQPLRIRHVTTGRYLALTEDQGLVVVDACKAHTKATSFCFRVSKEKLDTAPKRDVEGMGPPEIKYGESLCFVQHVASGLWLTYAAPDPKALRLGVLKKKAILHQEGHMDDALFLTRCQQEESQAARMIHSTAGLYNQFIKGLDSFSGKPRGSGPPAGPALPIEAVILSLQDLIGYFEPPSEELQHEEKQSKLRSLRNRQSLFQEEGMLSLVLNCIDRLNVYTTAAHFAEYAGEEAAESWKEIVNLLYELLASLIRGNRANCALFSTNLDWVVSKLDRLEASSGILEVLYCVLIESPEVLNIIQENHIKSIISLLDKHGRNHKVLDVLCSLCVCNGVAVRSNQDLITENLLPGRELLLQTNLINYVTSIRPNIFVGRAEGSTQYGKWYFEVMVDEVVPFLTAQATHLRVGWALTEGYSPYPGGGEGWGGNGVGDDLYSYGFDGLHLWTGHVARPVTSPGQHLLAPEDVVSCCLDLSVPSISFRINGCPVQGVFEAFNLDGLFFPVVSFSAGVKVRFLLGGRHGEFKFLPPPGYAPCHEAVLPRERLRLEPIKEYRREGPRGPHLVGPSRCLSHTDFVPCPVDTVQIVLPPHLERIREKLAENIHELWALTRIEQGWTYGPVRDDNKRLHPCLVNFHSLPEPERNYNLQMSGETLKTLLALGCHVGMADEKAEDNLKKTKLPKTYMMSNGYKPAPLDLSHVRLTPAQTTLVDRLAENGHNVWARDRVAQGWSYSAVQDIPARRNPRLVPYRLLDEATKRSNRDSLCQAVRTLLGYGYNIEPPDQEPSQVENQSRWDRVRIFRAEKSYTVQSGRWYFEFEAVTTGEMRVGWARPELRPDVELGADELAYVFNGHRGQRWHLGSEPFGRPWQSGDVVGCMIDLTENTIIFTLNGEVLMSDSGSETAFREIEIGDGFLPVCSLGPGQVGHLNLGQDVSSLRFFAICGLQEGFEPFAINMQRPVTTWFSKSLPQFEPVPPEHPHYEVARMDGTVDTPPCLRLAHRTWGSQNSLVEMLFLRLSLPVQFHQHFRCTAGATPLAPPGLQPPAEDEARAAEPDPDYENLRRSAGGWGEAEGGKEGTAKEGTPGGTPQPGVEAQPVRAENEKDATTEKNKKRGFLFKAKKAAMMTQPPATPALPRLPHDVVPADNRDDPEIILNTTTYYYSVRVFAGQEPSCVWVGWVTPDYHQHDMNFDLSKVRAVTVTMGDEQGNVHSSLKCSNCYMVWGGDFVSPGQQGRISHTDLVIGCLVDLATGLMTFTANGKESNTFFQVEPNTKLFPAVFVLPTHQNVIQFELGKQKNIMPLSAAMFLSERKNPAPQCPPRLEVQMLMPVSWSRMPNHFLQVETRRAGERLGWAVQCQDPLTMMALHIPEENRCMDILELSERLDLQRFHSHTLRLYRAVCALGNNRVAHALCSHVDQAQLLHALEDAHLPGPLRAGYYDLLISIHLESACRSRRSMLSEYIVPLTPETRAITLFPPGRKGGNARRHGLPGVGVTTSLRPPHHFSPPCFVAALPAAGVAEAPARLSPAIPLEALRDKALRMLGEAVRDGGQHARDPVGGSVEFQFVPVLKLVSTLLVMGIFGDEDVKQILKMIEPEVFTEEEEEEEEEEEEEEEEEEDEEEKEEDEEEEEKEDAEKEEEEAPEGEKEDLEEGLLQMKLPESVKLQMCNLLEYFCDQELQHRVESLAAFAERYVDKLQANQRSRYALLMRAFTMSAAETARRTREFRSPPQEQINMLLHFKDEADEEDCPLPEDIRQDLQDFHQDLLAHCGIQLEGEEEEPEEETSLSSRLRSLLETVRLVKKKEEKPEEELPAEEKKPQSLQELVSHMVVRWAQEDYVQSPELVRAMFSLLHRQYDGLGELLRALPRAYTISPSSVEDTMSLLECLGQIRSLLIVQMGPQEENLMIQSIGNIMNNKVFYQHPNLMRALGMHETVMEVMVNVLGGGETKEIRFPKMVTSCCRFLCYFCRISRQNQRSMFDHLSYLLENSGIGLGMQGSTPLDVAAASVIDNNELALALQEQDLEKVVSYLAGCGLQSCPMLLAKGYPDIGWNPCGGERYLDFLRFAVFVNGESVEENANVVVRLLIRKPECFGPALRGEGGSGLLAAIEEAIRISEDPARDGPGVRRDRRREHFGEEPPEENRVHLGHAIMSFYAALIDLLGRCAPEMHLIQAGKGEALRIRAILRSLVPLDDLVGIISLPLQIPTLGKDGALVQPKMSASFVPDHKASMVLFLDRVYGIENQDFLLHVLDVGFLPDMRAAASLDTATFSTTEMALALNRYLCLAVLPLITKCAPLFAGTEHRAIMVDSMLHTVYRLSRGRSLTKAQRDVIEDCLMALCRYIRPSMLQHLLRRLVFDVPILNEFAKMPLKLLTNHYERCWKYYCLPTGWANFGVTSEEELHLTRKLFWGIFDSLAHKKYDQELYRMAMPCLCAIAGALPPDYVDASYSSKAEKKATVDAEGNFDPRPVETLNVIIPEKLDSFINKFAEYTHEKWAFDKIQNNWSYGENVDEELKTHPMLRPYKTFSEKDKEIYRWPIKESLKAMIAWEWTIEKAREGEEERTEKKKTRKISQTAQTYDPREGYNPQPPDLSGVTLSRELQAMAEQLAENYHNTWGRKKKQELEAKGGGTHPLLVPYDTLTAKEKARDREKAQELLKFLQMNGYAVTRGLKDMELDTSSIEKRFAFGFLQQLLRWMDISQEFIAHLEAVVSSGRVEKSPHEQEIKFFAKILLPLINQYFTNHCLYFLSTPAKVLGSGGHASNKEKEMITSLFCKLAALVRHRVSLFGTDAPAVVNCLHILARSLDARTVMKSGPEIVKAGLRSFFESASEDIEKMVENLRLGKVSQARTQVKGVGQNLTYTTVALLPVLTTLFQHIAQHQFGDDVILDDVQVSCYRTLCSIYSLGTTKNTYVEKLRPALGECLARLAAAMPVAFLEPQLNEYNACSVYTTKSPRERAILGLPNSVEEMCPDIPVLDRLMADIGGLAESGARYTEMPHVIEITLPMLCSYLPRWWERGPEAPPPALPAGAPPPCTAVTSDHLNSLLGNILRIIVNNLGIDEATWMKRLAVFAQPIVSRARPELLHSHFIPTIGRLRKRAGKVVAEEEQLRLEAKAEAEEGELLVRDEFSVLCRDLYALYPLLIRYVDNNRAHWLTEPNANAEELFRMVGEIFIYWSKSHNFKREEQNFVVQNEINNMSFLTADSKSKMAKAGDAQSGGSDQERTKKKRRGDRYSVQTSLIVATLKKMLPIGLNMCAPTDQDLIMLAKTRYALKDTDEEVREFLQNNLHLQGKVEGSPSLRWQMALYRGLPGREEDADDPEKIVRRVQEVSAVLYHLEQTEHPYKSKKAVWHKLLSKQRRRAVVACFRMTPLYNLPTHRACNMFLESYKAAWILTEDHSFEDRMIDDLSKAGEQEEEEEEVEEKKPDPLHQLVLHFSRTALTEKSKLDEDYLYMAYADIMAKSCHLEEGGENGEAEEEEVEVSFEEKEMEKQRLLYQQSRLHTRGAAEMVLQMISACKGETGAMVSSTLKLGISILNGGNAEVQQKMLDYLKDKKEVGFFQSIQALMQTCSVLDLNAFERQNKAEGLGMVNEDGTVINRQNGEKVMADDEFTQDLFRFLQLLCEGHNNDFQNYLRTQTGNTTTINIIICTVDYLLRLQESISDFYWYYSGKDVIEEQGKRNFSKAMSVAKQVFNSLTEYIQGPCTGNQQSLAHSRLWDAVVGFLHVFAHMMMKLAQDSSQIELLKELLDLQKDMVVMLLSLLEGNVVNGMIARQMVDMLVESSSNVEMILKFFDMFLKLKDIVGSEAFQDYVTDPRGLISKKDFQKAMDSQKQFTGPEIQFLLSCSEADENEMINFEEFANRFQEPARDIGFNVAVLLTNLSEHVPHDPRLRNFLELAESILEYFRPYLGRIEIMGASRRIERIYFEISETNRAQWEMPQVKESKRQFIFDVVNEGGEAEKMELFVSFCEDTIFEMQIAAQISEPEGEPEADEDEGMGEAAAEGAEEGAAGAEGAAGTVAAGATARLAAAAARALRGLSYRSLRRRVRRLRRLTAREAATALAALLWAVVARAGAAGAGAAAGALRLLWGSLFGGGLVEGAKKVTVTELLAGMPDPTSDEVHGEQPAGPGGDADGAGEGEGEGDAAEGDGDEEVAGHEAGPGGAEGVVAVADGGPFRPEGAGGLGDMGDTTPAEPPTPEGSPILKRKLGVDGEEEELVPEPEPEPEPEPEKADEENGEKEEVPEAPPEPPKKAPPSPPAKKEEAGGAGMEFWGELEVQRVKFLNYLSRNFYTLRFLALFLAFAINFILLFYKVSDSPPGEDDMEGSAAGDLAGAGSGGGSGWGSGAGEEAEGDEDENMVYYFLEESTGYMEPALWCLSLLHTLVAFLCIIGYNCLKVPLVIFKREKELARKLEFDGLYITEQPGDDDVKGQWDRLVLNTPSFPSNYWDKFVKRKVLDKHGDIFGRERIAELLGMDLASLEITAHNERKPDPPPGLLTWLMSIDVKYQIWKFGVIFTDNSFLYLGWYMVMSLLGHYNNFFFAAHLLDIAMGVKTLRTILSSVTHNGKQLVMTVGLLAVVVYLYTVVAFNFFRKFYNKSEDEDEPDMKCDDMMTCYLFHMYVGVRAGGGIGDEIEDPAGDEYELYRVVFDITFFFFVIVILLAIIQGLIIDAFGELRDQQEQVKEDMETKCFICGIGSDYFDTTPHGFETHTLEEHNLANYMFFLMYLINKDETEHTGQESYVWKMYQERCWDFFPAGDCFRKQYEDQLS

SMILES	Bound [3H]ryanodine % of control [1]	Bound [3H]ryanodine pmol/mg protein [pmol/mg protein]	Bound [3H]ryanodine, % of control, +1 mmol/l AMPPCP (control (-xanthine) = 100)	Bound [3H]ryanodine, % of control, +3 mmol/l AMP (control (-xanthine) = 100)	Bound [3H]ryanodine % of control [2]	effect on the [3H] ryanodine binding compared to the control xanthine	Bound [3H]ryanodine % of control (control (-xanthine) = 100)
CC(=O)CCCCn1c(=O)c2c(ncn2C)n(C)c1=O [1-(5-Oxohexyl)-3,7-dimethylxanthine]	118 ± 3 % of control	3.18 ± 0.08	188 ± 5 % of control	185 ± 25 % of control			
Cn1c(=O)c2ncn(C)c2n(C)c1=O [1,3,9-Trimethylxanthine]		1.77 ± 0.12	105 ± 7 % of control	103 ± 15 % of control			
Cn1c(=O)c2c(ncn2CCO)n(C)c1=O [7β-Hydroxyethyl-1,3-dimethylxanthine]		2.10 ± 0.26	124 ± 15 % of control	134 ± 15 % of control	73 ± 4 % of control		
CCCCCCn1c(=O)c2c(ncn2C)n(C)c1=O [1-Hexyl-3,7-dimethylxanthine]	259 ± 24 % of control	6.99 ± 0.80	414 ± 47 % of control	449 ± 28 % of control		more than 200%	
Cn1c(=O)[nH]c2c(ncn2C)c1=O [1,9-Dimethylxanthine]		1.42 ± 0.23	84 ± 14 % of control	86 ± 18 % of control		less than 110%	84 ± 14 % of control
Cn1c(=O)c2[nH]c(Cl)nc2n(C)c1=O [8-Chloro-1,3-dimethylxanthine]		1.96 ± 0.13	116 ± 17 % of control	108 ± 14 % of control	68 ± 4 % of control		
Cn1c(=O)c2[nH]c(CCC(=O)O)nc2n(C)c1=O [8-Propionic acid 1,3-dimethylxanthine]		1.73 ± 0.09	102 ± 5 % of control	100 ± 11 % of control	60 ± 3 % of control		
Cc1nc2[nH]c(=O)[nH]c(=O)c2[nH]1 [8-Methylxanthine]		1.61 ± 0.33	95 ± 20 % of control	90 ± 11 % of control			95 ± 20 % of control
CCCn1cnc2c(=O)[nH]c(=O)[nH]c21 [9-Propylxanthine]		1.62 ± 0.20	96 ± 12 % of control	97 ± 23 % of control			96 ± 12 % of control
Cn1c(=O)[nH]c(=O)c2[nH]cnc21 [3-Methylxanthine]		2.26 ± 0.15	134 ± 9 % of control	137 ± 10 % of control			134 ± 9 % of control
Cn1cnc2c(=O)[nH]c(=O)n(C)c21 [3,9-Dimethylxanthine]		2.42 ± 0.34	143 ± 20 % of control	141 ± 11 % of control			143 ± 20 % of control
Cn1c(=O)c2[nH]c(C3CCCC3)nc2n(C)c1=O [8-Cyclopentyl-1,3-dimethylxanthine]		2.25 ± 0.28	133 ± 6 % of control	142 ± 14 % of control	78 ± 8 % of control		
Cn1c(=O)c2[nH]c(-c3ccccc3)nc2n(C)c1=O [8-Phenyl-1,3-dimethylxanthine]		1.67 ± 0.31	99 ± 18 % of control	103 ± 14 % of control	58 ± 9 % of control		
CCCn1c(=O)c2c(ncn2C)n(CCC)c1=O [1,3-Dipropyl-7-methylxanthine]		4.96 ± 0.39	295 ± 23 % of control	326 ± 30 % of control			
Cn1c(=O)[nH]c2nc[nH]c2c1=O [1-Methylxanthine]		3.02 ± 0.38	179 ± 22 % of control	167 ± 16 % of control			179 ± 22 % of control
CN1CN(C)c2c1[nH]c(=O)[nH]c2=O [7,9-Dimethylxanthine]		1.73 ± 0.22	102 ± 13 % of control	100 ± 15 % of control			102 ± 13 % of control
CC(C)Cn1c(=O)n(C)c(=O)c2[nH]cnc21 [3-Isobutyl-1-methylxanthine]		2.96 ± 0.33	175 ± 20 % of control	139 ± 11 % of control			175 ± 20 % of control
Cn1c(=O)c2c(ncn2CC(O)CO)n(C)c1=O (stereo not shown) [7-(2,3-Dihydroxypropyl)-1,3-dimethylxanthine]		1.97 ± 0.16	117 ± 9 % of control	123 ± 16 % of control	69 ± 6 % of control		
Cn1c(=O)[nH]c2ncn(C)c2c1=O [1,7-Dimethylxanthine]		6.08 ± 0.47	360 ± 28 % of control	378 ± 34 % of control			360 ± 28 % of control
CCCn1c(=O)[nH]c(=O)c2[nH]cnc21 [3-Propylxanthine]		3.82 ± 0.23	226 ± 14 % of control	203 ± 14 % of control			226 ± 14 % of control
Cn1c(=O)c2[nH]c(-c3ccc(S(=O)(=O)O)cc3)nc2n(C)c1=O [8-(p-Sulfophenyl)-1,3-dimethylxanthine]		1.55 ± 0.28	92 ± 17 % of control	91 ± 16 % of control	54 ± 6 % of control		
Cn1c(=O)c2c(ncn2CCCl)n(C)c1=O [7β-Chloroethyl-1,3-dimethylxanthine]		3.88 ± 0.16	230 ± 9 % of control	256 ± 34 % of control	135 ± 6 % of control		
